Where “and” joins values, the source holds several entries; their conditions need not be identical. Identical values can stand only once. Entries after “also recorded” stand apart in the source; their conditions may differ.
Columns and labels:
[1] = system: Renca cells; experiment: DNA incorporation studies (PCA acid extraction) in Renca cells; assay type: cell-based, mouse; conditions: 2 hours
Protocol: (§1) Renca, a mouse renal carcinoma cell line used for these studies, was a gift from Dr. G. Gali Hillman, Wayne State University. Cells were cultured in RPMI-1640 medium containing L-glutamine (Gibco) supplemented with 10% (v/v) fetal bovine serum (FBS), 100 U/mL penicillin, and 0.1 mg/mL streptomycin. Cells were cultured at 37° C. in a humidified incubator with a gas phase of 95% air and 5% CO2.
Two days after seeding 1×10^6 cells in 100×20 mm culture dishes, culture medium was replaced with 1 mL medium containing either 1 μCi/mL of [H-3] FAU or [H-3] FAU-PA. Cells were incubated in a humidified incubator for two hours at 37° C. in an atmosphere of 5% CO2 and 95% air. At the end of the incubation period, radioactive medium was removed and cells were washed three times with ice cold PBS. Then, cells were trypsinized, centrifuged and rewashed three times with ice cold PBS. Cells were lysed with 1 mL of 1M ice-cold perchloric acid solution. The cell lysates were vortexed and centrifuged at 14000 g for 15 minutes. The supernatants were removed, and the pellets were rinsed twice with 1 mL PCA. The acid insoluble fractions were resuspended in 200 μl of Soluene-350. All the acid soluble fractions or supernatants and the acid insoluble fractions were mixed with 5 mL of Ultima Gold scintillation cocktail and counted for 5 minutes on a liquid scintillation counter after an overnight chilling. […]

[2] = system: K-562 cells; experiment: Growth inhibition, K-562 cells; assay type: cell-based, human; conditions: 72 hours; for growth inhibition (in words): 3-1000 μM
Protocol: (§2) The cell lines CEM (T lymphoblastoid cells derived from a human peripheral blood), MOLT-4 (derived from a human acute lymphoblasticleukemia), RAJI (derived from a human Burkitt lymphoma), U-937 (derived from a human histocytic lymphoma), and K-562 (derived from a human chronic myelogenous leukemia) were used to measure the cytotoxicity, as assessed by growth inhibition potential. The cell lines were purchased from the American Type Culture Collection (Vienna, Va.). The cells were grown and maintained as a suspension culture in a RPMI 1640 preparation containing L-glutamine (Biofluids, Rockville, Md.) and 10% (v/v) heat-inactivated fetal calf serum (Invitrogen, Chicago, Ill.); a penicillin-streptomycin solution (Sigma Chemical Co., St. Louis, Mo.) was added to achieve a final concentration of 100 units/mL, and 100 μg/mL respectively. Cells were maintained at 37° C. in a humidified 5% CO2 atmosphere and were passed every 72-96 h to maintain cell densities of approximately 30,000 to 40,000 cells/mL. Under these conditions, the doubling times for CEM cells, MOLT-4 cells, RAJI cells, U-937 cells, and K-562 cells were 21-22 hours.
(§3) FAU and FAUPA were dissolved in deionized water and sterilized by passing through a Millex-GV, 0.22 μm filter, Millipore, Bedford, Mass.
(§4) All cell lines were resuspended in fresh media at 3000 to 3500 cells/mL. To each cell suspension final volume 0.2 mL, was added to achieve 0 to 1000 μM concentration of either FAU or FAU-PA. Control experiments had appropriate amounts of sterile distilled water instead of the drug.

[3] = system: U-937 cells; experiment: Growth inhibition, U-937 cells; assay type: cell-based, human; conditions: 72 hours
Protocol: as §2, §3
(§5) All cell lines were resuspended in fresh media at 3000 to 3500 cells/mL. […]

[4] = target: T1, mammalian cytosolic thymidine kinase (TK1) (Homo sapiens, UniProt P04183); conditions: relative to thymidine or FMAU (Sun et al., 2003); cited from earlier work
T1 sequence (P04183 1-234): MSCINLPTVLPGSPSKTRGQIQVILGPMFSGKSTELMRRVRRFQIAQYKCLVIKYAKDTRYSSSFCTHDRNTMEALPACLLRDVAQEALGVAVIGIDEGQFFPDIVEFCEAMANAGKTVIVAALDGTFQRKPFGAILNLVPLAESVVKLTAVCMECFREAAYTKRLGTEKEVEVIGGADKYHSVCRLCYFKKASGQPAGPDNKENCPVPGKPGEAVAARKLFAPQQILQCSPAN

[5] = system: RAJI cells; experiment: Growth inhibition, RAJI cells; assay type: cell-based, human; conditions: 72 hours; for growth inhibition (in words): 3-1000 μM
Protocol: as §2, §3, §4

[6] = system: MOLT-4 cells; experiment: Growth inhibition, MOLT-4 cells; assay type: cell-based, human
Protocol: as §2, §3, §5

[7] = system: CEM cells; experiment: Growth inhibition, CEM cells; assay type: cell-based, human; conditions: 72 hours, cell counting
Protocol: as §2, §3, §5

[8] = system: Renca cells; experiment: Tracer uptake studies in Renca cells; assay type: cell-based, mouse; conditions: 2 hours, 1 μCi/mL [H-3] tracer
Protocol: as §1
Tracer uptake studies were performed using [H-3]FAU (318.2 GBq/mmol, >99% radiochemical purity), and [H-3]FAU-PA (9.25 GBq/mmol, >99% radiochemical purity). Radiochemicals were obtained from Moravek Biochemicals (Brea, Calif.).
Renca cells were seeded at 2×10^5 cells/mL in 6 well plates. After 48 hours, when cells were 50-60% confluent, culture medium was replaced with 1 mL medium containing either 1 μCi/mL of [H-3]FAU or [H-3]FAU-PA. Cells were incubated in a humidified incubator for two hours at 37° C. in an atmosphere of 5% CO2 and 95% air. At the end of the incubation period, radioactive medium was removed, and cells were rinsed three times with ice cold phosphate buffered saline (PBS). Then, cells were trypsinized, centrifuged at 2000 g for 5 minutes and rewashed three times with ice cold PBS. […] All the supernatants and pellet samples were mixed with 5 mL of Ultima Gold scintillation cocktail and counted for 5 minutes in a liquid scintillation counter. […]

[9] = system: pig liver esterase; experiment: Pig liver esterase hydrolysis studies; assay type: in vitro ADME; conditions: 1 mg/mL in 0.02 M Na2HPO4, 200 units esterase per mL, 37° C., followed by TLC
Protocol: Thymidine and phosphoramidate analogs were dissolved in 0.02 M Na2HPO4 at a concentration of 1 mg/mL and 200 units of pig liver esterase per mL solutions (Sigma, St. Louis, Mo.) were added. The mixtures were stirred and maintained at 37° C. through out the course of the experiment. The rate of hydrolysis was followed by thin layer chromatography (TLC) from reaction mixture samples collected at selected intervals. For TLC monitoring, CH2Cl2:MeOH (4:1) and i-PrOH:NH4OH:H2O (7:1:2) mobile phases were used. At the completion of hydrolysis, within 30 minutes, samples were run on a HPLC system.

| SMILES | share of total accumulated activity found in the acid insoluble fraction [1] | growth inhibition at 1 mM ([2]; K-562 cells, 1 mM) | growth inhibition (in words) ([2]; K-562 cells) | growth inhibition at 1 mM (in words) ([3]; 1 mM, compared with CEM) | substrate quality for thymidine kinase (in words) [4] | growth inhibition at 1 mM (in words) ([5]; 1 mM, compared with CEM) | growth inhibition (in words) [5] | growth inhibition at 1 mM (in words) ([6]; 1 mM, 72 hours, compared with CEM) | IC50 [7] | IC50 ([2]; Homo sapiens, K562, K-562 cells (printed K-567), cell counting) | IC50 ([3]; Homo sapiens, cell counting) | intracellular accumulation of activity, FAU-PA relative to FAU [8] | intracellular accumulation of activity, FAU-PA relative to FAU ([8]; listed as [H-3]FAU-PA) | IC50 ([5]; Homo sapiens, cell counting) | IC50 ([6]; Homo sapiens, MOLT-4, 72 hours, cell counting) | time for hydrolysis by pig liver esterase [9] | IC50 ([7]; Homo sapiens, CCRF-CEM) |
| --- | --- | --- | --- | --- | --- | --- | --- | --- | --- | --- | --- | --- | --- | --- | --- | --- | --- |
| O=c1ccn([C@@H]2O[C@H](CO)[C@@H](O)[C@@H]2F)c(=O)[nH]1 [FAU, 1-(2′-deoxy-2′-fluoro-β-D-arabinofuranosyl)-uracil, reference compound] | 80% | 40% | little growth inhibition | somewhat less inhibited | poor substrate; also recorded: very poor substrate | somewhat less inhibited | little growth inhibition | somewhat less inhibited | < 100 µM |  |  |  |  |  |  |  |  |
| COC(=O)C(C)NP(=O)(OCC1OC(n2ccc(=O)[nH]c2=O)C(F)C1O)Oc1ccccc1 [FAU-PA, 1-(2′-deoxy-2′-fluoro-β-D-arabinofuranosyl)-uracil-5′-(phenylmethoxyalaninyl phosphate] | 72% |  | little growth inhibition |  |  |  | little growth inhibition |  |  | > 100 µM | < 60 µM | > 17 fold and 17 fold | 17 fold | > 100 µM | < 60 µM | ≤ 15 min | < 60 µM |
| COC(=O)C(C)NP(=O)(OCC1OC(n2cc(C)c(=O)[nH]c2=O)C[C@H]1O)Oc1ccccc1 (stereo partly drawn) [thymidine-PA, Methyl thymidine-5′-phenylphosphoryl-P→N-alaninate, reference compound] |  |  |  |  |  |  |  |  |  |  |  |  |  |  |  | 15 to 30 min |  |
